The values below come from patent US20130039928A1, “COMPOSITIONS AND METHODS FOR REVERSING CORTICOSTEROID RESISTANCE OR TREATING RESPIRATORY INFECTIONS” (priority 2010, published 2013).

In one experiment the test system is MARCO. As to conditions: alveolar macrophages from mice exposed to CS. On the procedure:
C57BL/6J mice were housed under controlled conditions for temperature and humidity, using a 12-hour light/dark cycle. At 8 weeks of age, mice were exposed to CS for (2.5 h/day for 5 days/week) for 1 week or 6 months using a machine that produces cigarette smoke (TE-10, Teague Enterprises) and reference cigarettes (2R4F) with a total suspended particle concentration of 250 mg/m^3 as previously described (T. E. Sussan et al., Proc Natl Acad Sci USA, (Dec. 22, 2008)). Following exposure to CS, mice were inoculated with PA or NTHI at a dose of 10^3 CFU in 50 μl of PBS intranasally. For sulforaphane administration (0.5 mg/mouse of R, S-sulforaphane in PBS), a nebulizer (Aerogen, Inc., Galway, Ireland) designed specifically for small animals was used.

A further experiment relates to Pseudomonas aeruginosa. As to conditions: THP-1 macrophages, 10 μM for 24 hours. The method, then:
To determine intracellular killing, macrophages were treated with vehicle (DMSO) or sulforaphane (10 μM) for 24 hours. Cells were then washed and the medium was replaced with serum-free medium. After the medium replacement, approximately 10^5 CFUs of PA were added to each well. After 1 h, the medium was removed and cells were washed, and the gentamicin-containing medium was added to kill bound, unphagocytosed bacteria. Cells were lysed at the indicated time points, and lysates were plated to determine viable intracellular bacteria.

`C[S+]([O-])CCCCN=C=S` (centres unmarked) [sulforaphane]: the MARCO expression entry in the experiment with MARCO is “increased MARCO expression”. The “kinetics of intracellular killing” value in the experiment with Pseudomonas aeruginosa was “moderate increase in the kinetics of intracellular killing”.
